Our source for the Activity, IC50 and inhibition values is ChEMBL document CHEMBL1667796, “Synthesis and evaluation of phosphonated N-heteroarylcarboxamides as DOXP-reductoisomerase (DXR) inhibitors” (Bioorg Med Chem, 2011).

Activity calls are given as the source filed them. The rule behind the calls is not given here.

The test system of test [1] is Escherichia coli. In words: Binding affinity at Escherichia coli DXR by saturation transfer difference NMR spectroscopy.
Test [2] can be described thus: Inhibition of Escherichia coli DXR assessed as conversion of NADPH to NADP by spectrophotometry.
The subject of test [3] is Escherichia coli. In words: Inhibition of Escherichia coli DXR assessed as conversion of NADPH to NADP at 500 uM by spectrophotometry.
Test [4] concerns Escherichia coli. In words: Inhibition of Escherichia coli DXR assessed as conversion of NADPH to NADP at 0.3 uM by spectrophotometry.

With `CC(=O)c1sc(NC(=O)CP(=O)(O)O)nc1C`, in the test with Escherichia coli [1], the outcome was Active. Also, the IC50 (usually the concentration that inhibits the measured activity by half) in test [2] (read-out: IC50) is above 1500 µM. Also, the inhibition – broadly, the percentage by which the read-out fell short of the control – with Escherichia coli [3] was 16.6%.
For `CCOP(=O)(CC(=O)Nc1nc(C)c(C(C)=O)s1)OCC`, the outcome in the test with Escherichia coli [1] was Active. Further, the IC50 in test [2] (read-out: IC50) came to 1290 µM.
For the compound `O=C(CP(=O)(O)O)Nc1ccon1`, in the test with Escherichia coli [1], the result was Active. Besides, the IC50 in test [2] (read-out: IC50) was above 1500 µM. Further, the inhibition in the test with Escherichia coli [3] is 12.2%.
Take `CCOP(=O)(CC(=O)Nc1ccccn1)OCC`: in the test on Escherichia coli [1], the result was Active. Besides, the IC50 in test [2] (read-out: IC50) amounted to 472 µM. For the same compound, in the test on Escherichia coli [3], the inhibition was found to be 58.5%.
Take `O=C(CP(=O)(O)O)Nc1nccs1`: in the test on Escherichia coli [1], the result was Active. Moreover, the IC50 in test [2] (read-out: IC50) was above 1500 µM. The inhibition in the test on Escherichia coli [3] turned out to be 7.4%.
Consider `O=C(CP(=O)(O)O)NCc1ccco1`, for which, in the test with Escherichia coli [1], the result was Active. Also, the IC50 in test [2] (read-out: IC50) was 1030 µM. In addition, the inhibition in the test with Escherichia coli [3] was determined as 30%.
For `CCOP(=O)(CC(=O)Nc1ccon1)OCC`, the outcome in the test on Escherichia coli [1] was Active. Also, the IC50 in test [2] (read-out: IC50) is 1170 µM. The inhibition with Escherichia coli [3] was 11.7%.
For `CCOP(=O)(CC(=O)NCc1ccco1)OCC`, in the test with Escherichia coli [1], the outcome was Active. In test [2] (read-out: IC50), the IC50 stood at 408 µM. In the test on Escherichia coli [3], the inhibition amounted to 67.7%.
`O=CN(O)CCCP(=O)(O)O`: the inhibition with Escherichia coli [4] turned out to be 99.3%.
For `CCOP(=O)(CC(=O)Nc1nccs1)OCC`, in the test on Escherichia coli [1], the outcome was Active. Also, the IC50 in test [2] (read-out: IC50) stood at 730 µM. Also, in the test on Escherichia coli [3], the inhibition came out at 28.9%.
For the compound `O=C(CP(=O)([O-])[O-])Nc1ccccn1.[Na+].[Na+]`, in the test with Escherichia coli [1], the result was Active. The IC50 result in test [2] is “Not Active”. The inhibition result with Escherichia coli [3] was “inactive”.
